Laboratory results as given in publication PMC12198407, “Preclinical and first-in-human of purinostat mesylate, a novel selective HDAC I/IIb inhibitor, in relapsed/refractory multiple myeloma and lymphoma” (Signal Transduction and Targeted Therapy, 2025).
Values joined by “and” are separate entries in the source; they are usually repeats but may differ in a detail not shown here. Identical values can stand only once.

Tests used:
CYP2C9 = target: T1, CYP2C9 (Homo sapiens, UniProt P11712); assay: CYP inhibition, human liver microsomes; format: in vitro ADME
T1 construct: human liver microsomal cytochrome P450 isoenzymes; from tissue; host or cells: human liver microsomes
T1 sequence (P11712 whole entry): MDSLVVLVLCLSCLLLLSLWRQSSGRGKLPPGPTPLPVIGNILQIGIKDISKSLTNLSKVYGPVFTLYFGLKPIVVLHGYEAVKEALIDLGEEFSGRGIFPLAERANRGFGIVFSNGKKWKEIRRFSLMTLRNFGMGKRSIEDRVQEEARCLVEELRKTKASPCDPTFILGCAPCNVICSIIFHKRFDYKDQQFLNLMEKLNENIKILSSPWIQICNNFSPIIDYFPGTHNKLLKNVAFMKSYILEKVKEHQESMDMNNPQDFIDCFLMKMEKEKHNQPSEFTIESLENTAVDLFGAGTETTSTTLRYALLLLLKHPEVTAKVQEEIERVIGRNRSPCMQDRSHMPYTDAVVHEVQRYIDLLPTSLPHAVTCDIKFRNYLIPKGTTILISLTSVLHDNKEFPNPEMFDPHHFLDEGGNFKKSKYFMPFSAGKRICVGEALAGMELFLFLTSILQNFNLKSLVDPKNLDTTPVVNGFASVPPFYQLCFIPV

CYP2C8 = target: T2, CYP2C8 (Homo sapiens, UniProt P10632); assay: CYP inhibition, human liver microsomes; format: in vitro ADME
T2 construct: human liver microsomal cytochrome P450 isoenzymes; from tissue; host or cells: human liver microsomes
T2 sequence (P10632 whole entry): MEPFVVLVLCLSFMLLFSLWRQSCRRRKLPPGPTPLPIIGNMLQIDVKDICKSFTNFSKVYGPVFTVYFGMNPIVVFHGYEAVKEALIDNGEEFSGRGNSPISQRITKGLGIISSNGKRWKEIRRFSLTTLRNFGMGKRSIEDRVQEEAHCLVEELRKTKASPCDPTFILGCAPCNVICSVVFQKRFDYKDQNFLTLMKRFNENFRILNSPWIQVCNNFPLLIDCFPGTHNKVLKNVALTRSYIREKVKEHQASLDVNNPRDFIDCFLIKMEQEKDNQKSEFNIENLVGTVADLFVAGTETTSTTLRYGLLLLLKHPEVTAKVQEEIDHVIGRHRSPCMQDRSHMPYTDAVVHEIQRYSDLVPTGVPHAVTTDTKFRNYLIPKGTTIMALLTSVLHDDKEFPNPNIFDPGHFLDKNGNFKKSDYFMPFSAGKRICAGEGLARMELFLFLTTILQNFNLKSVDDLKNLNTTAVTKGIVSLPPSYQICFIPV

[1] = system: double-expressing lymphoma (DEL) PDX; assay: DEL PDX mouse model; format: in vivo, mice; settings: 18 days; PM 5 mg/kg or 10 mg/kg
Description: All animal studies were performed in accordance with the guidelines approved by the Institutional Animal Care and Use Committee of Sichuan University, Chengdu, China. Six- to seven-week-old female NOD-SCID mice were purchased from Beijing Vital River Laboratory Animal Technology Co., Ltd. (China). Mice received subcutaneous inoculation with 0.5 × 10^7 MM1S or RPMI-8226 cells, to establish xenograft models. Heterotopic PDX models were generated as previously described.[54] When tumors reached 150–250 mm^3, mice were treated with various compounds. PM and panobinostat were administered intravenously three times a week at 5 mg/kg in combination therapy. […] Tumor volume (tumor volume (mm^3) = π/6 × length × width^2) and body weights were measured every two days. At the end, tumor tissues were weighed, and antitumor activity was evaluated by the tumor inhibition rate = (1 − tumor weight of treatment group/tumor weight of vehicle group) × 100%.

[2] = Safety pharmacology, ECG and blood pressure; format: in vivo, Beagle dogs; settings: 3.6 mg/kg i.v.
Description: (§1) In the 1.2 and 3.6 mg/kg groups, transient increases in heart rate were observed, and in the 3.6 mg/kg group, a transient and reversible prolongation of QT interval (9.6%) was also noted. Additionally, there were no significant effects observed on other qualitative and quantitative ECG parameters or blood pressure in the dogs. […] In the 90 mg/kg group, reduced locomotor activity and decreased standing frequency were also observed, but these effects returned to baseline after 24 hours. No significant effects were noted on other neurological behaviors in rats, and no impacts on the respiratory system were observed.

[3] = system: serum cytokines and T cells in PB; assay: Phase I trial, serum cytokines and PB T cells in responders; format: in vivo, human; settings: after 1 week
r/r MM and r/r lymphoma = assay: Phase I trial NCT05526313, efficacy assessment; format: in vivo, human
Description: This open-label, non-randomized, first-in-human phase I dose-escalation two-center trial enrolled adult patients with lymphoma or MM who were refractory or relapsed after ≥1 prior regimen (NCT05526313). All patients provided written informed consent, and the study was conducted in accordance with the principles of the Declaration of Helsinki. PM was administered by 30-min intravenous infusion in a standard 3 + 3 dose escalation design, starting from 1.2, 2.4, 4.0, 6.0, 8.4, 11.2, up to 15 mg/m^2. This trial was conducted in three sequential stages as follows: the first stage as a single dose (day 1), the second stage as multiple doses (day 8, 11, and 15), and the third stage as extended doses (day 1, 4, 8, 11 in 21-day cycles). The decision to proceed to the third stage is based on the patient’s continued benefit from the previous two stages. Patients continued to receive PM until unacceptable toxicity or disease progression. Between August 2020 and August 2022, 11 r/r MM and 18 r/r lymphoma patients were enrolled. The cutoff date for the assessment of safety and efficacy was July 7, 2023. The incidence and severity of adverse events were assessed according to the National Cancer Institute Common Terminology Criteria for Adverse Events (CTCAE 5.0). The efficacy of PM in patients with r/r MM was evaluated according to the standards of the Chinese Multiple Myeloma Diagnosis and Treatment Guidelines (2017 Revised) and the 2016 International Myeloma Working Group (IMWG). Minimal response (MR) (only for the evaluation of r/r MM): serum M protein decreased by 25–49% and 24 h light chain decreased by 50–89%. If soft tissue plasmacytoma exists at baseline, the sum of the product of perpendicular diameters (SPD) of measurable lesions is required to be reduced by ≥50%.[56],[57] The number and size of osteolytic lesions have not increased (compression fractures are allowed). […] Detailed methods for pharmacodynamic studies, safety and tolerability assessments (including the definition of DLT and maximum tolerated dose), and efficacy assessment are provided in Supplementary Methods.
Disease response of patients was measured according to the Chinese Multiple Myeloma Diagnosis and Treatment Guidelines (2017 Revised) and the 2016 International Myeloma Working Group (IMWG) for multiple myeloma or the International Working Group consensus response evaluation criteria in lymphoma (RECIL 2017). Patients need to be evaluated for efficacy after completing the cycle 1 of PM treatment (single and multiple dosing phases, day 25) and every 2 treatment cycles during the extended dosing phase. For r/r multiple myeloma, the efficacy was evaluated by quantification of M protein immunofixation electrophoresis of serum and urine. For r/r lymphoma, if sites with available positron emission tomography (PET) imaging, tumor volume was quantified by PET computed tomography (CT), and if sites where PET was not available, CT or magnetic resonance imaging was used. Objective response rate (ORR)=CR+PR+MR, and disease control rate (DCR)=CR+PR+MR+SD, and calculate their 95% confidence interval using the Clopper-Pearson method. The efficacy assessable population was determined to include all patients who were administered at least one dose of PM and had undergone at least one tumor assessment after the baseline.

[4] = Safety pharmacology, CNS and respiratory; format: in vivo, rats; settings: 30 and 90 mg/kg i.v.
Description: as §1

CYP2B6 = assay: CYP induction, cryopreserved human liver cells; format: in vitro ADME; settings: 0.0500, 0.500, 5.00 µM; three donors
[5] = by row: r4 MM, r5 DLBCL, r6 FL, r7 other lymphomas, r8 total

CN(Cc1nc2c(N3CCOCC3)nc(-c3ccc(N)cc3)nc2n1C)c1ncc(C(=O)NO)cn1.CS(=O)(=O)O [PM, 2-(((2-(4-Aminophenyl)-9-methyl-6-(4-morpholinyl)-9H-purine-8-yl)methyl)methylamino)-N-hydroxy-5-pyrimidine-carboxamide Mesylate]
IC50 (CYP2C9): > 10 µM
IC50 (CYP2C8): > 10 µM
complete remission [1]: all mice achieved complete remission
prolongation of QT interval, transient and reversible [2]: 9.6%
proportion of CD3+CD4+ T cells in PB ([3]; before 4.12%): 6.49%
proportion of CD3+CD8+ T cells in PB ([3]; before 4.30%): 9.56%
proportion of CD3+ T cells in PB ([3]; before 8.42%): 16.05%
DCR (r/r MM and r/r lymphoma; DLBCL, n=11): 72.7%
duration of PR (r/r MM and r/r lymphoma; FL patient with multiple extranodal lesions): more than 10 cycles
DCR (r/r MM and r/r lymphoma; FL, n=3): 66.7%
ORR (r/r MM and r/r lymphoma; FL, n=3): 66.7%
duration of MR (r/r MM and r/r lymphoma; Patient No.10, 6.0 mg/m²): more than 6 months
M-protein after 2 cycles (r/r MM and r/r lymphoma; Patient No.10, 6.0 mg/m², baseline 26.290 g/L): 15.998 g/L
Best Response CR (r/r MM and r/r lymphoma; [5]): 6(54.5) n (%) and 6(20.7) n (%)
Best Response MR (r/r MM and r/r lymphoma; [5]): 1(33.3) n (%)
Best Response PD (r/r MM and r/r lymphoma; [5]): 1(33.3) n (%)
Best Response PR (r/r MM and r/r lymphoma; [5]): 1(33.3) n (%)
Best Response SD (r/r MM and r/r lymphoma; [5]): 10(34.5) n (%)
DCR (r/r MM and r/r lymphoma; other lymphomas, n=4): 100%
ORR (r/r MM and r/r lymphoma; other lymphomas, n=4): 50.0%
duration of CR (r/r MM and r/r lymphoma; r/r DEL DLBCL patient with MYD88 mutation): over 18 months
duration of CR (r/r MM and r/r lymphoma; r/r DEL patient No.26): more than 1.5 years
Response (%): CR (r/r MM and r/r lymphoma; r/r DLBCL): 54.5%
ORR (r/r MM and r/r lymphoma; r/r DLBCL, n=11): 63.6%
number of complete responses (r/r MM and r/r lymphoma; r/r DLBCL, n=11): 6
number of partial responses (r/r MM and r/r lymphoma; r/r DLBCL, n=11): 1
DCR (r/r MM and r/r lymphoma; r/r MM, n=11): 72.7%
ORR (r/r MM and r/r lymphoma; r/r MM, n=11, 1.2–8.4 mg/m^2): 9.1% and 9.09%
ORR (r/r MM and r/r lymphoma; r/r lymphoma, n=18, 4.0–15.0 mg/m^2): 61.1%
DCR (r/r MM and r/r lymphoma; total, n=29): 75.9%
ORR (r/r MM and r/r lymphoma; total, n=29): 41.4%
body temperature [4]: a decrease in body temperature
induction of CYP2B6 (CYP2B6): did not act as an inducer
